In patent publication US20240285670A1, “THERAPEUTIC TREATMENT OF TUMORS BY BLOCKING THE HEME SYNTHESIS-EXPORT AXIS” (Università degli Studi di Torino, priority 2021, published 2024):

Key:
SH-SY5Y cells = experiment: Mitochondrial ATP levels in SHSY-5Y cells; assay type: cell-based, human; details: FLVCR1a-silenced vs scramble shRNA SH-SY5Y cells
Source text: Results were expressed as nmol NAD*/min/mg mitochondrial protein for complex I, nmol reduced cytochrome c/min/mg mitochondrial protein for complexes II-III, nmol oxidized cytochrome c/min/mg mitochondrial protein for complex IV. Data represent mean±SEM, n=3. For statistical analyses, an unpaired Student's t-test was used; *=p<0.05, **=p<0.01, *=p<0.001. […] Results are expressed as nmol/mg mitochondrial proteins. Data represent mean±SEM, n=3. For statistical analyses, an unpaired Student's t-test was used; *=p<0.05. […] Results are expressed as pmol CO2/h/mg protein. Data represent mean±SEM, n=3. For statistical analyses, an unpaired Student's t-test was used; **=p<0.01. […] Results were expressed as nmol NAD*/min/mg mitochondrial protein for complex I, nmol reduced cytochrome c/min/mg mitochondrial protein for complexes II-III, nmol oxidized cytochrome c/min/mg mitochondrial protein for complex IV. […] Results are expressed as nmol/mg mitochondrial proteins. […] Results are expressed as pmol CO2/h/mg protein. […] (H) TCA cycle enzymes activities are reported in boxes and expressed as mU/mg mitochondrial proteins. […] Results were expressed as nmol NAD^+/min/mg mitochondrial protein for complex I, nmol reduced cytochrome c/min/mg mitochondrial protein for complexes II-III, nmol oxidized cytochrome c/min/mg mitochondrial protein for complex IV. […] Results are expressed as nmol/mg mitochondrial proteins. […]

BTECs = experiment: In vitro tubulogenesis assay on matrigel; assay type: cell-based, human; details: FLVCR1a-silenced vs scramble shRNA BTECs, 18 hours
Source text: (A) BTECs counting, as a readout of cell proliferation, at the indicated time points. […] Data represent mean±SEM, n=4. For statistical analyses, a two-way analysis of variance was used, followed by the Bonferroni correction for multiple group comparisons; ***p<0.001. (B) Quantification of BTECs migration rate in wound-healing assay. […] Data represent mean±SEM, n=32. For statistical analyses, a nonparametric unpaired Mann-Whitney test was used; ***p<0.001. (C) In vitro tubulogenesis assay on matrigel. […] The number of nodes counted within the neo-formed vascular networks is shown. Data represent mean±SEM; n=10. For statistical analyses, a nonparametric unpaired Mann-Whitney test was used; **p<0.01.
To assess in vitro formation of capillary-like structures, 3.5*10^4 BTECs were seeded in 24-well plates coated with BD Matrigel Matrix Growth Factor Reduced (BD Biosciences, Franklin Lakes, NJ USA, catalog n°356230). Cell organization on Matrigel was monitored using a Nikon Eclipse T-E microscope with a Nikon Plan 10×/0.10 NA objective. […] Images obtained 18 hours after the start of the experiment were analysed using Fiji open source software (Schindelin et al., 2012) (http://fiji.sc/ RRID:SCR_002285) in order to assess the number of nodes (intersections formed by at least three detectable cells) for each field. […]

FLVCR1a shRNA: shRNA specifically down-regulating FLVCR1a without targeting FLVCR1b; pLKO.1 lentiviral clone TRCN0000059599, antisense SEQ ID No.: 2 (antisense TTGCTAATGATGCTGTACTGG; sense CCAGTACAGCATCATTAGCAA)
mitochondrial ATP levels (SH-SY5Y cells): increased mitochondrial ATP levels | formation of microvascular network on matrigel (number of nodes) (BTECs): impaired ability to form a complex microvascular network on matrigel
